These results are taken from US10350311B2, “Iohexol powder and method of using the same” (Otsuka Pharmaceutical Co., Ltd., priority 2014, dated 2019).

Holding throughout (type): physicochemical
Data set [1] can be described thus: Dissolution time in water by Modified United States Pharmacopeia Method 641. The note with it: Example 2. How it is done:
As used herein, the term “Modified United States Pharmacopeia Method 641” denotes a modified form of the Standard United States Pharmacopeia Method 641, where the Modified United States Pharmacopeia Method 641 is carried out as follows: • Place 1.8 g of the particulate iohexol in a meticulously clean, glass-stoppered, 50 mL glass cylinder approximately 1:10 diameter to height in size. • Fill 40 mL of tap water adjusted to 10° C. (±2° C.) into the glass cylinder. • Immediately start shaking the glass cylinder and start recording total time. • Shake the glass cylinder with an up and down movement, keeping the frequency at 12-13 movements per 5 seconds. • After 20 seconds observe for 3 seconds for completeness of dissolution. • Evaluate after 3 seconds, when the bubbles disappear, comparing with pure solvent. • If dissolved completely, record “dissolved in 20 seconds”. • If not dissolved completely, continue shaking for a total time 30 sec • Repeat the dissolution evaluation at 30 seconds, 40 seconds, 1 min., and 1 min. 30 seconds. • Always repeat the dissolution evaluation using the same procedure. • If dissolved completely at time point 1 min 30 sec, record “dissolved in NMT 1 min 30 sec”. • If not dissolved, record “not dissolved in 1 min 30 sec”. 20 oz (600 ml) modified beverage PET bottle for Iohexol Powder for Oral Solution product; 50 ml testing glass cylinder; Tap water. Samples were tested using the Modified USP Method <641> as described herein.

A short description of data set [2]: Particle size distribution (D10, D50, D90). The note with it: Table 6, Example 5; listed as crystallized iohexol. The source says:
As used herein, the “D90” of a particulate material denotes a diameter value for the particles in the material at which about 90% of the particles have a diameter below the diameter value. For example, in a sample with a D90 of 20 μm, 90% of the particles in the sample have a diameter of 20 μm or less. As used herein, the “D50” of a material denotes a diameter value for the particles in the material at which about 50% of the particles have a diameter below the diameter value. For example, in a sample with a D50 of 10 μm, 50% of the particles in the sample have a diameter of 10 μm or less. As used herein, the “D10” of a material denotes a diameter value for the particles in the material at which about 10% of the particles have a diameter below the diameter value. For example, in a sample with a D10 of 5 μm, 10% of the particles in the sample have a diameter of 5 μm or less.

The nature of data set [3]: Specific surface area by low-temperature nitrogen adsorption (BET). The note with it: for Specific Area measured [m^2/g]: BET isotherm, nitrogen adsorption; for Specific Area estimated [m^2/g]: calculated from SEM geometry assuming non-porous spheres. How it is done:
Specific surface area was measured using a low-temperature nitrogen adsorption apparatus, a Pulse Chemisorb 2700.
The specific surface area data, which were evaluated using a BET isotherm, support the nonporous nature/character of the particles. The measured value of the specific surface area was about 2.8 m^2/g, which is consistent with the calculation of the specific surface area of hypothetical material which consists of non-porous spheres with a radius of 3 μm. Considering the skeletal density of crystallized iohexol (2.097 g/cm3), the calculated specific surface area of this hypothetical material is about 4 m^2/g. All data provided by analyses appear to support the conclusion that the crystallized iohexol solid material contains agglomerates consisting of small nonporous particles and that the total specific area is the sum of the outer surface areas of these particles.
Experimentally obtained values of the specific surface area are very low, which is typical of macroporous to non-porous materials. Experimental specific surface area values for all samples are in good agreement with the estimated values based on SEM image analysis, (calculating the particle surface area based on the geometrical shape of particles, i.e., and assuming that the particles are not porous (confirmed by mercury porosimetry as discussed above). Individual values and comparisons of the amount of nitrogen desorption for each sample are summarized in Table 5.

The nature of data set [4]: Skeletal density by helium pycnometer. The settings on record: Table 5, Example 3. How it is done: As used herein, the term “interparticle spacing” denotes the percentage of the “bulk” particle volume which is free space. The interparticle spacing can be calculated from the bulk density and skeletal density. As discussed above, bulk density refers to the density determined by dividing the weight of the sample by its measured volume, for example using the USP <616> method. The skeletal density, sometimes referred to as the “true density,” is determined by dividing the weight of a sample by its “true” volume—i.e., the volume excluding interstitial voids and any open porosity in the sample (e.g., determined by gas displacement techniques). […] The porosity of the iohexol particles was also investigated using mercury intrusion, and the skeletal density was determined by helium pycnometer and physical adsorption of nitrogen.

Data set [5] in a line: Exposure to air humidity / moisture uptake. The note with it: exposed to ambient air humidity for 120 hours, SEM. How it is done: Crystallized iohexol samples were also examined by SME analysis for the influence of air humidity (i.e., humidity of ambient/room air). Crystallized iohexol samples were exposed to air humidity for 120 hours.
Setting [6] is: Table 5, listed as crystallized iohexol.

With `CC(=O)N(CC(O)CO)c1c(I)c(C(=O)NCC(O)CO)c(I)c(C(=O)NCC(O)CO)c1I` (centres unmarked) [CRI, iohexol], in data set [1], the “Dissolution, in words” value is “dissolved rapidly”. The “Particle Size distribution (μm) D50” value in data set [2] was 10 μm. In addition, the figures for the “Specific Area measured [m^2/g]” value in data set [3] (Table 5) and in data set [3] (setting [6]) were 2.8 m^2/g and “about 2.8 m^2/g”, respectively. The “Specific Area estimated [m^2/g]” value is reported as 4.0^a m^2/g in data set [3] (Table 5) and “about 4 m^2/g” in data set [3] (setting [6]). Moreover, the “Relative desorbed amount Ad/Ad(crystallized)” value in data set [3] (Table 5, nitrogen desorbed relative to crystallized iohexol) is listed as 1. Besides, the “Specific surface area m^2/g” value in data set [3] (Table 6, Example 5, listed as crystallized iohexol) is listed as “about 4 m^2/g”. For the same compound, the “Skeletal density” value in data set [4] and in data set [4] (listed as crystallized iohexol) was 2.097 g/mL each time. In addition, the “Influence of air humidity on the particles” value in data set [5] is on record as “sintering of originally separated particles was observed”.
